In the supplement of paper PMC4862054:

Key:
[1] = test system: MCF-10A; test: drug sensitivity score (DSS), CellTiter-Glo (DSS (AUC-based score)); higher = stronger drug effect (viability inhibition or cytotoxicity); extreme values may be limits of the assay; details: incubation time: 72 h
Summary of the method: (§1)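 Breast cancer cell lines were seeded in 20 µl suspension into 384-well plates already holding compound and incubated for 72 h. Each compound was tested at 5 concentrations in 10-fold steps across its own 10,000-fold range. Plates were normalised to 0.1 % DMSO and a positive kill control after CellTox Green and then CellTiter-Glo readings. The area under the fitted dose-response curve served as the basis for the drug sensitivity score.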

[2] = test system: MDA-MB-436; test: as above; details: incubation time: 72 h
Summary of the method: as §1

[3] = test system: HCC1143; test: as above; details: incubation time: 72 h
Summary of the method: as §1

[4] = test system: MFM-223; test: as above; details: incubation time: 72 h
Summary of the method: as §1

[5] = test system: MDA-MB-453; test: as above; details: incubation time: 72 h
Summary of the method: as §1

[6] = test system: DU-4475; test: as above; details: incubation time: 72 h
Summary of the method: as §1

[7] = test system: HDQ-P1; test: as above; details: incubation time: 72 h
Summary of the method: as §1

[8] = test system: HCC1599; test: as above; details: incubation time: 72 h
Summary of the method: as §1

[9] = test system: MDA-MB-468; test: normalised viability (% of control), CellTiter-Blue; higher = more viable cells (about 100 = DMSO control); details: incubation time: 72 h
Summary of the method: (§2)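 Each entry is normalised viability at a single listed concentration within a series. It comes from breast cancer cell lines incubated 72 h with compound in 384-well plates, then measured with CellTiter-Blue fluorescence at 560/590 nm. Every plate was normalised between vehicle (100) and a positive kill control (0).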

[10] = test system: HCC1143; test: as above; details: incubation time: 72 h
Summary of the method: as §2

[11] = test system: HCC1937; test: as above; details: incubation time: 72 h
Summary of the method: as §2

[12] = test system: BT-474; test: as above; details: incubation time: 72 h
Summary of the method: as §2

[13] = test system: CAL-51; test: as above; details: incubation time: 72 h
Summary of the method: as §2

[14] = test system: SK-BR-3; test: as above; details: incubation time: 72 h
Summary of the method: as §2

[15] = test system: CAL-85-1; test: as above; details: incubation time: 72 h
Summary of the method: as §2

[16] = test system: BT-549; test: as above; details: incubation time: 72 h
Summary of the method: as §2

[17] = test system: HDQ-P1; test: as above; details: incubation time: 72 h
Summary of the method: as §2

[18] = test system: HCC1599; test: as above; details: incubation time: 72 h
Summary of the method: as §2

[19] = test system: MDA-MB-231; test: as above; details: incubation time: 72 h
Summary of the method: as §2

[20] = test system: MDA-MB-453; test: normalised viability (% of control), CellTiter-Blue; higher = more viable cells (about 100 = DMSO control); details: 3000 nM; incubation time: 72 h
Experimental: (§3)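 DSRT, CellTiter-Blue viability, 72 h incubation. Signal is normalised to DMSO and benzethonium chloride controls. Value is the normalised response at dose 8.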

[21] = test system: CAL-51; test: as above; details: 3000 nM; incubation time: 72 h
Experimental: as §3

[22] = test system: DU-4475; test: as above; details: 3000 nM; incubation time: 72 h
Experimental: as §3

[23] = test system: CAL-85-1; test: as above; details: 3000 nM; incubation time: 72 h
Experimental: as §3

[24] = test system: CAL-148; test: as above; details: 3000 nM; incubation time: 72 h
Experimental: as §3

[25] = test system: HDQ-P1; test: as above; details: 3000 nM; incubation time: 72 h
Experimental: as §3

O=C(Cc1ccc(-c2ccc(OCCN3CCOCC3)cc2)cn1)NCc1ccccc1 [KX2-391]
Details	drug sensitivity score	normalised viability [%]
[1]	8.52	–
[2]	21	–
[3]	14.7	–
[4]	15.6	–
[5]	9	–
[6]	15.2	–
[7]	8.26	–
[8]	23.8	–
[20]	–	36.2
[21]	–	11.3
[22]	–	8.65
[23]	–	42.1
[24]	–	24.2
[25]	–	41.6

normalised viability [%]
Details	3 nM	10 nM	30 nM	100 nM	1000 nM	10000 nM
[9]	–	104	–	–	38.9	51.8
[10]	–	79.3	–	–	32.3	39.5
[11]	–	108	–	–	16.9	15.9
[12]	–	114	–	–	56	66.7
[13]	114	–	105	20	–	–
[14]	–	102	–	–	19.9	19.1
[15]	92.5	–	65.1	34.2	–	–
[16]	–	95.5	–	–	17.5	20.7
[17]	112	–	97.7	43.2	–	–
[18]	–	95.6	–	–	62.3	58.7
[19]	–	98.1	–	–	18.1	16.3

O=C(O)C(=O)O.[NH-][C@@H]1CCCC[C@H]1[NH-].[Pt+2] [Oxaliplatin]
Details	drug sensitivity score	normalised viability [%]
[1]	0	–
[2]	0	–
[3]	0	–
[4]	0	–
[5]	0	–
[6]	0	–
[7]	0	–
[8]	0	–
[20]	–	100
[21]	–	118
[22]	–	108
[23]	–	84.5
[24]	–	82.8
[25]	–	102

normalised viability [%]
Details	3 nM	10 nM	30 nM	100 nM	1000 nM	10000 nM
[9]	–	98.7	–	–	97.7	56.5
[10]	–	82.2	–	–	94.2	44
[11]	–	90.7	–	–	82.2	33.9
[12]	–	125	–	–	118	83.5
[13]	97.9	–	92.2	94.9	–	–
[14]	–	98.1	–	–	122	47.5
[15]	99	–	83.2	87.3	–	–
[16]	–	93.9	–	–	74.2	52.6
[17]	110	–	103	107	–	–
[18]	–	87.3	–	–	79.6	70
[19]	–	92.2	–	–	83.5	48.9

C=CC(=O)Nc1cc2c(Nc3ccc(F)c(Cl)c3)ncnc2cc1OCCCN1CCOCC1 [Canertinib]
Details	drug sensitivity score	normalised viability [%]
[1]	22	–
[2]	4.2	–
[3]	3.9	–
[4]	3.18	–
[5]	6.35	–
[6]	0.331	–
[7]	11.8	–
[8]	3.8	–
[20]	–	28.2
[21]	–	79.9
[22]	–	103
[23]	–	34.3
[24]	–	60
[25]	–	27.5

normalised viability [%]
Details	3 nM	10 nM	30 nM	100 nM	1000 nM	10000 nM
[9]	–	89.2	–	–	52.9	1.77
[10]	–	74.9	–	–	89	22.6
[11]	–	62.8	–	–	73.1	13.6
[12]	–	93.7	–	–	34.4	16.3
[13]	110	–	105	105	–	–
[14]	–	71.9	–	–	19.9	12.9
[15]	82.5	–	67	64.2	–	–
[16]	–	103	–	–	90.7	2.56
[17]	106	–	90.6	76	–	–
[18]	–	96.2	–	–	106	43.9
[19]	–	91.4	–	–	70.6	6.79

COc1cc([C@@H]2c3cc4c(cc3[C@@H](O[C@@H]3O[C@@H]5CO[C@@H](c6cccs6)O[C@H]5[C@H](O)[C@H]3O)[C@H]3COC(=O)[C@H]23)OCO4)cc(OC)c1O [Teniposide]
Details	drug sensitivity score	normalised viability [%]
[1]	0	–
[2]	16.8	–
[3]	12	–
[4]	7.72	–
[5]	0	–
[6]	19.4	–
[7]	4.15	–
[8]	19	–
[20]	–	52.4
[21]	–	12.6
[22]	–	2.12
[23]	–	41
[24]	–	9.86
[25]	–	67.3

normalised viability [%]
Details	3 nM	10 nM	30 nM	100 nM	1000 nM	10000 nM
[9]	–	99.1	–	–	54.2	15.6
[10]	–	95.6	–	–	49.5	20.5
[11]	–	82.3	–	–	21	18.8
[12]	–	118	–	–	113	50.8
[13]	98.2	–	78.2	43.4	–	–
[14]	–	105	–	–	20.9	7.84
[15]	103	–	89.7	94.5	–	–
[16]	–	101	–	–	62.4	8.99
[17]	113	–	113	104	–	–
[18]	–	80.8	–	–	65.1	47.9
[19]	–	103	–	–	73.7	13.8
